Data as given in ChEMBL document CHEMBL3885881, “DrugMatrix”.

Species: Rattus norvegicus
Assay: DrugMatrix - Regimen: Daily Repeat
Assay type: toxicity, organism-based, Sprague-Dawley
Parameters: regimen Daily Repeat, gender Male, age 6-8 weeks
Settings: in vivo, po, route oral GAVAGE, vehicle 100 % WATER; for ABSOLUTE BASOPHIL / ABSOLUTE EOSINOPHIL / ABSOLUTE LYMPHOCYTE / ABSOLUTE MONOCYTE / ABSOLUTE SEGMENTED NEUTROPHIL / BASOPHIL / EOSINOPHIL / ERYTHROCYTE COUNT / HEMATOCRIT / HEMOGLOBIN / LEUKOCYTE COUNT / LYMPHOCYTE / MEAN CORPUSCULAR HEMOGLOBIN / MEAN CORPUSCULAR HEMOGLOBIN CONCENTRATION / MEAN CORPUSCULAR VOLUME / MONOCYTE / NEUTROPHIL / NUCLEATED RED BLOOD CELLS / PLATELET COUNT: tissue Blood; for ALANINE AMINOTRANSFERASE / ALBUMIN / ALKALINE PHOSPHATASE / ASPARTATE AMINOTRANSFERASE / BLOOD UREA NITROGEN / CARBON DIOXIDE / CHLORIDE / CHOLESTEROL / CREATINE PHOSPHOKINASE / CREATININE / GLUCOSE / LACTATE DEHYDROGENASE / LIPASE / PHOSPHORUS / POTASSIUM / SODIUM / TOTAL BILIRUBIN / TOTAL PROTEIN / URIC ACID: tissue Plasma
[1] = 0 mg/kg, 72 h, dose level Control, time 3 day
[2] = 0 mg/kg, 120 h, dose level Control, time 5 day
[3] = 28 mg/kg, 72 h, dose level Low, time 3 day

Compound: CS(=O)(=O)c1ccc([C@@H](O)[C@@H](CO)NC(=O)C(Cl)Cl)cc1 [THIAMPHENICOL]
- ABSOLUTE BASOPHIL [1]: 0 CELLS/uL
- ABSOLUTE EOSINOPHIL [1]: 151.33 CELLS/uL
- ABSOLUTE LYMPHOCYTE [1]: 10599.5 CELLS/uL
- ABSOLUTE MONOCYTE [1]: 109.5 CELLS/uL
- ABSOLUTE SEGMENTED NEUTROPHIL [1]: 1139.67 CELLS/uL
- BASOPHIL [1]: 0%
- EOSINOPHIL [1]: 0.83%
- ERYTHROCYTE COUNT [1]: 5.54 x10E6/uL
- HEMATOCRIT [1]: 35.35%
- HEMOGLOBIN [1]: 13.22 G/DL
- LEUKOCYTE COUNT [1]: 12 x10E3/uL
- LYMPHOCYTE [1]: 89%
- MEAN CORPUSCULAR HEMOGLOBIN [1]: 23.88 pg
- MEAN CORPUSCULAR HEMOGLOBIN CONCENTRATION [1]: 37.4 G/DL
- MEAN CORPUSCULAR VOLUME [1]: 63.85 fL
- MONOCYTE [1]: 1%
- NEUTROPHIL [1]: 9.17%
- NUCLEATED RED BLOOD CELLS [1]: 0 /100WBC
- PLATELET COUNT [1]: 1333.33 x10E3/uL
- ALANINE AMINOTRANSFERASE [1]: 53.17 u/L
- ALBUMIN [1]: 4.32 G/DL
- ALKALINE PHOSPHATASE [1]: 404.33 u/L
- ASPARTATE AMINOTRANSFERASE [1]: 83.17 u/L
- BLOOD UREA NITROGEN [1]: 15.67 mg/dL
- CARBON DIOXIDE [1]: 27.33 mmol/L
- CHLORIDE [1]: 101.83 MEQ/L
- CHOLESTEROL [1]: 68.67 mg/dL
- CREATINE PHOSPHOKINASE [1]: 276.17 u/L
- CREATININE [1]: 0.18 mg/dL
- GLUCOSE [1]: 163.5 mg/dL
- LACTATE DEHYDROGENASE [1]: 144.67 u/L
- LIPASE [1]: 8.83 u/L
- PHOSPHORUS [1]: 11.72 mg/dL
- POTASSIUM [1]: 5.99 MEQ/L
- SODIUM [1]: 143.57 MEQ/L
- TOTAL BILIRUBIN [1]: 0.2 mg/dL
- TOTAL PROTEIN [1]: 6.1 G/DL
- URIC ACID [1]: 1.38 mg/dL
- ABSOLUTE BASOPHIL [2]: 0 CELLS/uL
- ABSOLUTE EOSINOPHIL [2]: 248.67 CELLS/uL
- ABSOLUTE LYMPHOCYTE [2]: 12977.83 CELLS/uL
- ABSOLUTE MONOCYTE [2]: 19.67 CELLS/uL
- ABSOLUTE SEGMENTED NEUTROPHIL [2]: 1137.17 CELLS/uL
- BASOPHIL [2]: 0%
- EOSINOPHIL [2]: 1.67%
- ERYTHROCYTE COUNT [2]: 5.82 x10E6/uL
- HEMATOCRIT [2]: 36.35%
- HEMOGLOBIN [2]: 13.58 G/DL
- LEUKOCYTE COUNT [2]: 14.38 x10E3/uL
- LYMPHOCYTE [2]: 90.5%
- MEAN CORPUSCULAR HEMOGLOBIN [2]: 23.32 pg
- MEAN CORPUSCULAR HEMOGLOBIN CONCENTRATION [2]: 37.42 G/DL
- MEAN CORPUSCULAR VOLUME [2]: 62.42 fL
- MONOCYTE [2]: 0.17%
- NEUTROPHIL [2]: 7.67%
- NUCLEATED RED BLOOD CELLS [2]: 0 /100WBC
- PLATELET COUNT [2]: 1337.67 x10E3/uL
- ALANINE AMINOTRANSFERASE [2]: 48.5 u/L
- ALBUMIN [2]: 4.32 G/DL
- ALKALINE PHOSPHATASE [2]: 354.33 u/L
- ASPARTATE AMINOTRANSFERASE [2]: 80 u/L
- BLOOD UREA NITROGEN [2]: 16 mg/dL
- CARBON DIOXIDE [2]: 27.33 mmol/L
- CHLORIDE [2]: 100.33 MEQ/L
- CHOLESTEROL [2]: 68 mg/dL
- CREATINE PHOSPHOKINASE [2]: 325.17 u/L
- CREATININE [2]: 0.23 mg/dL
- GLUCOSE [2]: 172 mg/dL
- LACTATE DEHYDROGENASE [2]: 254.83 u/L
- LIPASE [2]: 8.33 u/L
- PHOSPHORUS [2]: 12.17 mg/dL
- POTASSIUM [2]: 6.28 MEQ/L
- SODIUM [2]: 143.57 MEQ/L
- TOTAL BILIRUBIN [2]: 0.18 mg/dL
- TOTAL PROTEIN [2]: 6.12 G/DL
- URIC ACID [2]: 1.78 mg/dL
- ABSOLUTE BASOPHIL [3]: 0 CELLS/uL
- ABSOLUTE EOSINOPHIL [3]: 49.67 CELLS/uL
- ABSOLUTE LYMPHOCYTE [3]: 5981.33 CELLS/uL
- ABSOLUTE MONOCYTE [3]: 18.33 CELLS/uL
- ABSOLUTE SEGMENTED NEUTROPHIL [3]: 584 CELLS/uL
- BASOPHIL [3]: 0%
- EOSINOPHIL [3]: 0.67%
- ERYTHROCYTE COUNT [3]: 5.43 x10E6/uL
- HEMATOCRIT [3]: 34.57%
- HEMOGLOBIN [3]: 13.07 G/DL
- LEUKOCYTE COUNT [3]: 6.63 x10E3/uL
- LYMPHOCYTE [3]: 90%
- MEAN CORPUSCULAR HEMOGLOBIN [3]: 24 pg
- MEAN CORPUSCULAR HEMOGLOBIN CONCENTRATION [3]: 37.8 G/DL
- MEAN CORPUSCULAR VOLUME [3]: 63.6 fL
- MONOCYTE [3]: 0.33%
- NEUTROPHIL [3]: 9%
- NUCLEATED RED BLOOD CELLS [3]: 0 /100WBC
- PLATELET COUNT [3]: 1197 x10E3/uL
- ALANINE AMINOTRANSFERASE [3]: 57.33 u/L
- ALBUMIN [3]: 4.33 G/DL
- ALKALINE PHOSPHATASE [3]: 344.67 u/L
- ASPARTATE AMINOTRANSFERASE [3]: 83 u/L
- BLOOD UREA NITROGEN [3]: 16 mg/dL
- CARBON DIOXIDE [3]: 29 mmol/L
- CHLORIDE [3]: 102.33 MEQ/L
- CHOLESTEROL [3]: 74.33 mg/dL
- CREATINE PHOSPHOKINASE [3]: 180 u/L
- CREATININE [3]: 0.21 mg/dL
- GLUCOSE [3]: 145.33 mg/dL
- LACTATE DEHYDROGENASE [3]: 123 u/L
- LIPASE [3]: 8.33 u/L
- PHOSPHORUS [3]: 13.03 mg/dL
- POTASSIUM [3]: 6.66 MEQ/L
- SODIUM [3]: 147.17 MEQ/L
- TOTAL BILIRUBIN [3]: 0.17 mg/dL
- TOTAL PROTEIN [3]: 6.53 G/DL
- URIC ACID [3]: 1.33 mg/dL
